Test [1] concerns the target T1, C. albicans RNA polymerase II (Candida albicans, UniProt A0A1D8PUA6+Q5A8Y5).
T1 construct: RNA elongation assay on calf thymus DNA
Kind of test: biochemical. Conditions: for IC50: read-out: IC50 Candida pol II; for inhibition at 20 µM: screening of azo library. The method, then:
The following procedure is used for cell-free high-throughput screening. A Tomtec Quadra 96-well pipetting station is used to add the reaction components to polypropylene 96-well dishes. 5 μl aliquots of test compounds dissolved in DMSO (or DMSO alone as a control) are added to wells. This is followed by 20 μl of the RNA polymerase II mixture, which consists of: 10 mM DTT, 200 mM KCl, 10 mM Mn^+2, 1.5 μM bovine serum albumin, and 0.25 μg reconstituted RNA polymerase. After allowing the test compound to interact with the RNA polymerase, 25 μl of the DNA/NTP mixture is added, containing: 1 μg calf thymus DNA, 4 μM [α-^32 P]-UTP, and 400 μM each CTP, ATP, and GTP.
After incubation for 60 min at 30 C, the reaction is stopped by addition of 50 μl 15% trichloroacetic acid (TCA). The TCA-precipitated RNA is adsorbed onto double-thick glass fiber filtermats using a Tomtec cell harvester. The wells of the microtiter plate and the filter are washed twice with 5% TCA and bound radioactivity is determined using a Wallac microbeta 1450 scintillation counter.
Inhibitory activity due to the test compound is calculated according to the formula: [formula] where cpmpositive control represents the average of the cpm in wells that received DMSO alone, and cpmsample represents the cpm in the well that received test compound. Compounds that cause at least 50% inhibition are scored as positive "hits" in this assay.
DNA-directed RNA polymerase II from Candida albicans was purified in sufficient quantity to support high throughput screening of large synthetic chemical and natural product libraries. A biochemical mechanism-based screen for detecting inhibitors of Pol II was developed and implemented. The screen is outlined in FIGS. 4A and 4B.

Another test deals with T2, human Pol II (Homo sapiens, UniProt P24928+P30876).
T2 construct: Pol II was isolated from Aspergillus nidulans, Saccharomyces cerevisiae, and human cells; endogenous in cells; enzyme isolated from them
Nature of the test: RNA polymerase II counterscreen, human pol II. Conditions: read-out: IC50 Human pol II. Format: biochemical. The method, then:
Pol II was isolated from Aspergillus nidulans, Saccharomyces cerevisiae, and human cells (FIG. 5) and used in secondary screens for fungal spectrum and specificity. Pol I and Pol III were isolated from Candida albicans and used as an additional mechanism to study specificity. Confirmed hits form the primary assay and were evaluated against this panel of polymerases. Agents with activity against Pol II from multiple fungal enzymes but not against the human counterpart were evaluated in vitro against fungal pathogens.
A general note: The purpose of a counterscreen is to sort out artefacts and off-target activity.

For test [2], the system named is systemic Candida infection. Nature of the test: Murine model for systemic candidiasis. Format: in vivo, mouse. Conditions: systemic candidiasis, mice. On the procedure:
In addition, Compound 1 was efficacious in a murine model for systemic candidiasis (FIG. 10). It prolonged mean and median survival times of treated mice in the dosage range of 5 mg/kg/d to 100 mg/kg/d on aq.d., d2-11 schedule. […] The efficacy of Compound 1 was confirmed in a separate experiment using amphotericin as a control (FIG. 11). Compound 1 was also efficacious when administered orally to mice with an established systemic Candida infection (FIG. 12). […] Compound 1 is also effective against systemic candidiasis caused by a strain of C. albicans resistant to fluconazole (FIG. 13). Additional animal testing will include acute toxicity determination, route and schedule dependency in standard efficacy models, efficacy testing in immunosuppressed Candida infected mice, efficacy in an Aspergillus infection model, and pharmacokinetics following IV and oral dosing.
Compound 6 was evaluated for antifungal efficacy in a systemic candidiasis model in immunocompetent mice (FIG. 18). The compound was administered IP on a q.d., d2-11 schedule. […] 90% long term survival was seen formice treated with Compound 6 at 200/mg/kg. 30% of mice survived when treated with Compound 6 at 100 mg/kg/d. Compound 6 was also effective against systemic candidiasis when administered orally (FIG. 19) and it was effective in treating infections caused by fluconazole-resistant C. albicans.

The next test has as its system C. albicans. Nature of the test: Time course of fungicidal activity, C. albicans. Format: cell-based, Candida albicans. Conditions: C. albicans cells. From the text: (§1) Compound 1 is rapidly fungicidal.
The next test has as its system S. cerevisiae. Kind of test: Time course of fungicidal activity, S. cerevisiae. Conditions: S. cerevisiae cells. The format is cell-based, Saccharomyces cerevisiae.
Text: as §1

Where [3] appears, read: 1.5 μg/ml, similar time (45 minutes).

Like-named read-outs stand apart in the source and are kept apart here.

T1 sequence (A0A1D8PUA6 1-1728): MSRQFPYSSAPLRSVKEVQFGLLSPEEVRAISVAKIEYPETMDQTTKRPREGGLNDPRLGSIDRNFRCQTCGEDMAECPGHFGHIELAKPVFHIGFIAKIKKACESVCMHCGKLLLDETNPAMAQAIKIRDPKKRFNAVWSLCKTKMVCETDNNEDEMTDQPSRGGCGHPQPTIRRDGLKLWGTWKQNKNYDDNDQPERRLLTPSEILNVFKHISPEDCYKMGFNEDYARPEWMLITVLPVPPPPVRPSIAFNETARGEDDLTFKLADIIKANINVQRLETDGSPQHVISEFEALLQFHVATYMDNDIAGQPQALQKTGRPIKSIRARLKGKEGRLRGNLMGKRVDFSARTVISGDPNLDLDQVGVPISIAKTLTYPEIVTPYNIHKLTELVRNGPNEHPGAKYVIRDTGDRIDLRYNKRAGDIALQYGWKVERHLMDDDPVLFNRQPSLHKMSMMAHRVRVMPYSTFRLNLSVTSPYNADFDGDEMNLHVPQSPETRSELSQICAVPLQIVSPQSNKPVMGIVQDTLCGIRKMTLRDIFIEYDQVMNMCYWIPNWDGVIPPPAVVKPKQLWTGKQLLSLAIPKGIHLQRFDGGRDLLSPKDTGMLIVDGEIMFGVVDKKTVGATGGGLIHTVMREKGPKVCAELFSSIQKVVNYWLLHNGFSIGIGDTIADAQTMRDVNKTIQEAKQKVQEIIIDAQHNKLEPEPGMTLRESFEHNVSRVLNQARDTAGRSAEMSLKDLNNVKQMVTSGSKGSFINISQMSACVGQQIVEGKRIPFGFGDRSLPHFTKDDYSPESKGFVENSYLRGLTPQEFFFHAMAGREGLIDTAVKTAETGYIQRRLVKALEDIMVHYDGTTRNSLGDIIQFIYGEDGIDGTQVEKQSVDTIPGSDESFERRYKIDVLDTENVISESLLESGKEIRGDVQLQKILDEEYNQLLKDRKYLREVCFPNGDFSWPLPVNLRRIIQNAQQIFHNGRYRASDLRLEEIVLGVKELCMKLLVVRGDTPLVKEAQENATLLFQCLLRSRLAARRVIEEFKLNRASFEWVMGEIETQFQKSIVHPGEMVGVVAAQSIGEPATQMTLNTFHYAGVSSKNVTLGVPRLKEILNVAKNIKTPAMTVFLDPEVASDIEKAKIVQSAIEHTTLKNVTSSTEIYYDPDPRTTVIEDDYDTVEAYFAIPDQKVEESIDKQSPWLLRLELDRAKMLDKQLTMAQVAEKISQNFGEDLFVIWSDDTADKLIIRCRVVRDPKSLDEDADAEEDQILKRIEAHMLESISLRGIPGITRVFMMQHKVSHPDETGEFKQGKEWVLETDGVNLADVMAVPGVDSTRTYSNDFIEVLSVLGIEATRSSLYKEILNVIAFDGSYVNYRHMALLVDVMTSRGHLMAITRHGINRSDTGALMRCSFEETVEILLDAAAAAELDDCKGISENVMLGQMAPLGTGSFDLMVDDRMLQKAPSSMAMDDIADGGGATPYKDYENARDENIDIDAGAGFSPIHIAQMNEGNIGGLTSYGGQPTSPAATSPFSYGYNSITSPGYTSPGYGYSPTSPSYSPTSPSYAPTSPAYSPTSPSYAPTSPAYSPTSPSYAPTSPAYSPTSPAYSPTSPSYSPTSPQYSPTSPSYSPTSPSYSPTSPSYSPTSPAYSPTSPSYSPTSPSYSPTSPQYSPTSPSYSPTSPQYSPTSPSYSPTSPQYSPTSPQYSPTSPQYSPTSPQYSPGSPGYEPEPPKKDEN
T1 sequence (Q5A8Y5 1-1234): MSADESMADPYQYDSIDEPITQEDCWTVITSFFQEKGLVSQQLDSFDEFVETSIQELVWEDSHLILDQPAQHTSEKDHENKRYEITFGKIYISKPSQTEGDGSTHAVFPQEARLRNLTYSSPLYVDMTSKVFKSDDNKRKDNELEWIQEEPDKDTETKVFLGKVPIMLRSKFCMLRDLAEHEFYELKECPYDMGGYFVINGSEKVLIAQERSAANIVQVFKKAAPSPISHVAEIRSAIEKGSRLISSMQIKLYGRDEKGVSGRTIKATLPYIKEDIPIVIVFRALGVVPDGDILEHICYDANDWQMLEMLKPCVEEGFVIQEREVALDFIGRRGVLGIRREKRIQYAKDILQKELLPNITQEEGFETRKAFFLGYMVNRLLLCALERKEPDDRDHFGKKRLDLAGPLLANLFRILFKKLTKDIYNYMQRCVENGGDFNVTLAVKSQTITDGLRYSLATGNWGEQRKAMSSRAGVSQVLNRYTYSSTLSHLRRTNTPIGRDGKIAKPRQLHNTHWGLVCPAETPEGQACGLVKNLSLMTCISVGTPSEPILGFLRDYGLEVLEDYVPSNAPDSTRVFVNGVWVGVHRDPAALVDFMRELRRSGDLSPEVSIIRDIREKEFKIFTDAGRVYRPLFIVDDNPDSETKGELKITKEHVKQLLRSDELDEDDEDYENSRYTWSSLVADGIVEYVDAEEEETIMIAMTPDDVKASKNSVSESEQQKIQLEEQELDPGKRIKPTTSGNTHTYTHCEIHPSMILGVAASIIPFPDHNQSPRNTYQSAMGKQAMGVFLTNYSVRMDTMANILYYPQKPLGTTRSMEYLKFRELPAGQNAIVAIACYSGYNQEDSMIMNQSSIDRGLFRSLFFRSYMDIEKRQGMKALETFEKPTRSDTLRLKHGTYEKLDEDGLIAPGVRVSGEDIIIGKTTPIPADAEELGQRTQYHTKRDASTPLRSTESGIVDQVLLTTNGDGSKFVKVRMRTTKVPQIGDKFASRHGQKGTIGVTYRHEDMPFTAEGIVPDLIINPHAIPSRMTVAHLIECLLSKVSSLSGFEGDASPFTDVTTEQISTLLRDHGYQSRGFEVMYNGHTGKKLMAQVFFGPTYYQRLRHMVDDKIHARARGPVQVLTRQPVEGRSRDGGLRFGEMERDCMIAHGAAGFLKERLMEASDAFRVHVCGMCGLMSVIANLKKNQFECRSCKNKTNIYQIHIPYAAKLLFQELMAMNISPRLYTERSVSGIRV

What is called IC50 is the midpoint of a concentration-inhibition curve. In the case of `Oc1ccc(CCc2cccc(C(F)(F)F)c2)cc1` [CH2 CH2], the IC50 in test [1] (Table 1) was 230 µM; on human Pol II (Table 1) it was over 2000 µM.

For the molecule `OB(O)c1cc(C=Cc2cccc(C(F)(F)F)c2)ccc1O` [Compound 27], the values for the half-inhibitory concentration (IC50) (in test [1] (Table 2); at human Pol II (Table 2)) were 58 µM and 136 µM, respectively.

Regarding `COCOc1ccc(C=Cc2cccc(C(F)(F)F)c2)cc1` [Compound 25, 4-[-2-[3-(trifluorometbyl)phenyl]ethenyl]-methoxymethoxyl phenyl], the half-maximal inhibitory concentration (IC50) (in test [1] (Table 2); on human Pol II (Table 2)) was over 2000 µM each time.

Consider `Oc1ccc(C=Cc2cccc(C(F)(F)F)c2)cc1Br` [Compound 26, 4-[-2-[3-(trifluoromethyl)phenyl]ethenyl]-2-bromo-phenol], for which the IC50 in test [1] (Table 2) turned out to be 42 µM; on human Pol II (Table 2), 84 µM.

Broadly, the inhibition is how much of the control response was suppressed. Turning to `O=[N+]([O-])c1cccc(N=Nc2ccc(O)cc2)c1` [Compound 12, 4-[-2-[3-(nitro)phenyl]diazenyl]phenol], the inhibition at 20 µM in test [1] stood at 45%.

Take `Cc1cccc(N=Nc2ccc(O)cc2)c1` [Compound 5, 4-[-2-[3-(methyl)phenyl]diazenyl]-phenol]: the concentration for half-maximal inhibition (IC50) in test [1] (Table 2) worked out at 90 µM; on human Pol II (Table 2), 340 µM.

`COc1ccc(C=Cc2cccc(C(F)(F)F)c2)cc1` [Compound 24, 4-[-2-[3-(trifluoromethyl)-phenyl]ethenyl]-anisole]: the IC50 (in test [1] (Table 2); at human Pol II (Table 2)) was over 2000 µM in each case.

In the case of `COc1ccc(N=Nc2cccc(C(F)(F)F)c2)cc1` [Compound 3, 4-[-2-[3-(trifluoromethyl)phenyl]diazenyl]-anisole], the IC50 (in test [1] (Table 2); at human Pol II (Table 2)) was over 2000 µM in each case.

As for `O=C(Nc1ccc(O)cc1)c1cccc(C(F)(F)F)c1` [CONH], the IC50 was determined as 51 µM in test [1] (Table 1) and 500 µM on human Pol II (Table 1).

Take `OCc1cc(O)ccc1N=Nc1cccc(C(F)(F)F)c1` [Compound 21, 4-[-2-[3-(trifluoromethyl)phenyl]diazenyl]-3-(hydroxymethyl)-phenol]: 20 µM produced 39% inhibition in test [1].

As to `O=C(O)CN(CCN(CC(=O)O)CC(=O)O)CC(=O)O` [EDTA, reference compound], the inhibition at 10 µM in test [1] (1 h, read-out: inhibition of transcription) is at least 90%.

“4-[-2-[3-(trifluoromethyl)phenyl]diazenyl]-2-hydroxy-phenol [Compound 4]”: the IC50 worked out at 70 µM in test [1] (Table 2) and 230 µM at human Pol II (Table 2).

On to `O=Cc1cc(/N=N/c2cccc(C(F)(F)F)c2)ccc1O` [Compound 10, 5-[(E)-2-[3-(trifluoromethyl)phenyl]diazenyl]-2-hydroxy-benzaldehyde], for which the IC50 in test [1] (Table 2) was 34 µM; on human Pol II (Table 2), 82 µM.

`N#Cc1cc(O)ccc1N=Nc1cccc(C(F)(F)F)c1` [Compound 20, 4-[-2-[3-(trifluoromethyl)phenyl]diazenyl]-3-cyano-phenol]: the inhibition at 20 µM in test [1] stood at 28%.

Regarding `O=C(Nc1cccc(C(F)(F)F)c1)c1ccc(OCc2ccccc2)cc1` [Compound 29, 4-benzoxy-N-[3-(trifluoromethyl)phenyl]benzamide], the concentration for half-maximal inhibition (IC50) (in test [1] (Table 2); at human Pol II (Table 2)) was over 2000 µM throughout.

As for `Oc1ccc(N=Nc2cccc(Cl)c2)cc1` [Compound 11, 4-[-2-[3-(chloro)phenyl]diazenyl]phenol], the inhibition at 20 µM in test [1] turned out to be 50%.

Regarding `OC(Cn1cncn1)(Cn1cncn1)c1ccc(F)cc1F` [fluconazole, reference compound], the “recoverable colonies from the kidneys of treated animals” value in test [2] is listed as “reduced”.

Take `O=[N+]([O-])c1cc(N=Nc2cccc(C(F)(F)F)c2)ccc1O` [Compound 8, 4-[-2-[3-(trifluoromethyl)phenyl]diazenyl]-2-nitrophenol]: the IC50 in test [1] (Table 2) was 103 µM; on human Pol II (Table 2), over 2000 µM.

In turn, `N#Cc1cc(N=Nc2cccc(C(F)(F)F)c2)ccc1O` [Compound 18, 4-[-2-[3-(trifluoromethyl)phenyl]diazenyl]-2-cyano-phenol] gave an inhibition at 20 µM in test [1] of 37%.

In test [1], `O=[N+]([O-])c1cc(O)ccc1N=Nc1cccc(C(F)(F)F)c1` [Compound 23, 4-[-2-[3-(trifluoromethyl]phenyl)diazenyl]-3-nitro-phenol] gave an inhibition at 20 µM of 37%.

Regarding `COc1cc(N=Nc2ccc(O)cc2)cc(C(F)(F)F)c1` [Compound 17], the inhibition at 20 µM in test [1] was 53%.

Take `Cc1cc(O)ccc1N=Nc1cccc(C(F)(F)F)c1` [Compound 22, 4[-2-[3-(trifluoromethyl)phenyl]diazenyl]-3-methyl-phenol]: in test [1], the inhibition at 20 µM stood at 42%.

Take `O=[N+]([O-])c1cc(C(F)(F)F)ccc1N=Nc1ccc(O)cc1` [Compound 7]: the results for the IC50 (in test [1] (Table 2); on human Pol II (Table 2)) were 190 µM and 300 µM, respectively.

Turning to `C[C@@H]1[C@H](O)[C@@H](C)/C=C/C=C/C=C/C=C/C=C/C=C/C=C/[C@H](O[C@@H]2O[C@H](C)[C@@H](O)[C@H](N)[C@@H]2O)C[C@@H]2O[C@](O)(C[C@@H](O)C[C@@H](O)[C@H](O)CC[C@@H](O)C[C@@H](O)CC(=O)O[C@H]1C)C[C@H](O)[C@H]2C(=O)O` [amphotericin B, reference compound], the “exposure time after which no CFUs are recoverable” value in the test with C. albicans and in the test on S. cerevisiae was about 30 min each time. Moreover, the “colony forming units after exposure” value in the test with C. albicans (setting [3]) and with S. cerevisiae (setting [3]) was “no colony forming units are detected” in each case.

`O=C(Nc1cccc(C(F)(F)F)c1)c1ccc(O)cc1` [Compound 30, 4-hydroxy-N-[3-(trifnuoromethyl)phenyl]benzamide]: the values for the 50% inhibitory concentration (IC50) (in test [1] (Table 1); at human Pol II (Table 1)) were 27 µM and 82 µM, respectively.

`Oc1ccc(N=Nc2cccc(C(F)(F)F)c2F)cc1` [Compound 13, 4-[-2-[2-fluoro-3-(trifluoromethyl)phenyl]diazenyl]phenol] displayed an inhibition at 20 µM in test [1] of 38%.

For `O=C(O)c1cc(N=Nc2cccc(C(F)(F)F)c2)ccc1O` [Compound 9, 5-[-2-[3-(trifluoromethyl)phenyl]diazenyl]-2-hydroxy-benzoic acid], the IC50 was 193 µM in test [1] (Table 2) and 148 µM on human Pol II (Table 2).

In test [1], `Oc1ccc(N=Nc2cc(C(F)(F)F)ccc2F)cc1` [Compound 15, 4-[-2-[6-fluoro-3-(trifluoromethyl)phenyl]diazenyl]phenol] returned an inhibition at 20 µM of 39%.

In the case of `Oc1ccc(N=Nc2cc(C(F)(F)F)cc(C(F)(F)F)c2)cc1` [Compound 16, 4-[-2-[3,5-(di-trifluoromethyl)phenyl]diazenyl]phenol], the inhibition at 20 µM in test [1] came to 28%.

In test [1], `Oc1ccc(N=Nc2ccc(F)c(C(F)(F)F)c2)cc1` [Compound 14] yielded an inhibition at 20 µM of 42%.

With `OCc1cc(N=Nc2cccc(C(F)(F)F)c2)ccc1O` [Compound 19, 4-[-2-[3-(tnfluoromethyl)phenyl]diazenyl]-2-(hydroxymethyl)-phenol], 20 µM produced 33% inhibition in test [1].

The values are drawn from US6165998A, “Antifungal agents” (Scriptgen Pharmaceuticals, Inc., priority 1998, dated 2000).
